From ChEMBL document CHEMBL1201861, “Genomics of Drug Sensitity in Cancer screening data, Wellcome Trust Sanger Institute”

Assays:
Experiment in all cases: cells
COLO-829 = format: functional, cell-based, Homo sapiens; settings: Homo sapiens, COLO-829
Description: SANGER: Inhibition of human COLO-829 cell growth in a cell viability assay.

CW-2 = format: functional, cell-based, Homo sapiens; settings: Homo sapiens, CW-2;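 also: growth inhibition of CW-2 cells, read out by a cell viability assay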
Description: SANGER: Inhibition of human CW-2 cell growth in a cell viability assay.

D283 Med = format: functional, cell-based, Homo sapiens; settings: Homo sapiens, D283 Med
Description: SANGER: Inhibition of human D-283MED cell growth in a cell viability assay.

DEL = format: functional, cell-based, Homo sapiens; settings: Homo sapiens, DEL;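 also: growth inhibition of the human DEL cell line, read out with a cell viability assay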
EKVX = format: functional, cell-based, Homo sapiens; settings: Homo sapiens, EKVX;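 also: growth inhibition of human EKVX cells, read out with a cell viability assay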
Description: SANGER: Inhibition of human EKVX cell growth in a cell viability assay.

GI-ME-N = format: functional, cell-based, Homo sapiens; settings: Homo sapiens, GI-ME-N;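 also: growth inhibition of human GI-ME-N cells, read out with a cell viability assay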
Description: SANGER: Inhibition of human GI-ME-N cell growth in a cell viability assay.

GR-ST = format: functional, cell-based, Homo sapiens; settings: Homo sapiens, GR-ST
Description: SANGER: Inhibition of human GR-ST cell growth in a cell viability assay.

HCC1187 = format: functional, cell-based, Homo sapiens; settings: Homo sapiens, HCC1187;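 also: growth inhibition of HCC1187 cells, read out with a cell viability assay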
Description: SANGER: Inhibition of human HCC1187 cell growth in a cell viability assay.

HD-MY-Z = format: functional, cell-based, Homo sapiens; settings: Homo sapiens, HD-MY-Z;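 also: growth inhibition of HD-MY-Z cells, read out with a cell viability assay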
Description: SANGER: Inhibition of human HD-MY-Z cell growth in a cell viability assay.

HL-60 = format: functional, cell-based, Homo sapiens; settings: Homo sapiens, HL-60;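 also: growth inhibition of human HL-60 cells, read out with a cell viability assay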
Description: SANGER: Inhibition of human HL-60 cell growth in a cell viability assay.

HT-144 = format: functional, cell-based, Homo sapiens; settings: Homo sapiens, HT-144
J-RT3-T3-5 = format: functional, cell-based, Homo sapiens; settings: Homo sapiens, J-RT3-T3-5;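 also: cell viability assay measuring growth inhibition of human J-RT3-T3-5 cells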
Description: SANGER: Inhibition of human J-RT3-T3-5 cell growth in a cell viability assay.

K5 = format: functional, cell-based, Homo sapiens; settings: Homo sapiens, K5
Description: SANGER: Inhibition of human K5 cell growth in a cell viability assay.

KALS-1 = format: functional, cell-based, Homo sapiens; settings: Homo sapiens, KALS-1; read-out: IC50;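 also: growth inhibition of KALS-1 cells, determined with a cell viability assay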
Description: SANGER: Inhibition of human KALS-1 cell growth in a cell viability assay.

KG-1 = format: functional, cell-based, Homo sapiens; settings: Homo sapiens, KG-1;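 also: growth inhibition of KG-1 cells, read out by a cell viability assay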
Description: SANGER: Inhibition of human KG-1 cell growth in a cell viability assay.

KM12 = format: functional, cell-based, Homo sapiens; settings: Homo sapiens, KM12;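 also: KM12 cell growth inhibition, read out with a cell viability assay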
Description: SANGER: Inhibition of human KM12 cell growth in a cell viability assay.

KNS-81-FD = format: functional, cell-based, Homo sapiens; settings: Homo sapiens, KNS-81-FD;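 also: growth inhibition of KNS-81-FD cells, read out with a cell viability assay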
Description: SANGER: Inhibition of human KNS-81-FD cell growth in a cell viability assay.

KP-N-YS = format: functional, cell-based, Homo sapiens; settings: Homo sapiens, KP-N-YS;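 also: cell viability assay measuring inhibition of cell line growth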
Description: SANGER: Inhibition of human KP-N-YS cell growth in a cell viability assay.

LB831-BLC = format: functional, cell-based, Homo sapiens; settings: Homo sapiens, LB831-BLC;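 also: growth inhibition of LB831-BLC cells, read out with a cell viability assay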
Description: SANGER: Inhibition of human LB831-BLC cell growth in a cell viability assay.

LB996-RCC = format: functional, cell-based, Homo sapiens; settings: Homo sapiens, LB996-RCC
Description: SANGER: Inhibition of human LB996-RCC cell growth in a cell viability assay.

LS-1034 = format: functional, cell-based, Homo sapiens; settings: Homo sapiens, LS-1034
Description: SANGER: Inhibition of human LS-1034 cell growth in a cell viability assay.

Lu-65 = format: functional, cell-based, Homo sapiens; settings: Homo sapiens, Lu-65;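 also: growth inhibition of Lu-65 cancer cells, read out by a cell viability assay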
Description: SANGER: Inhibition of human LU-65 cell growth in a cell viability assay.

LXF-289 cell line = format: functional, cell-based; settings: Homo sapiens
Description: SANGER: Inhibition of human LXF-289 cell growth in a cell viability assay.

MEG-01 = format: functional, cell-based, Homo sapiens; settings: Homo sapiens, MEG-01;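 also: growth inhibition of MEG-01 cells, read out by a cell viability assay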
Description: SANGER: Inhibition of human MEG-01 cell growth in a cell viability assay.

MHH-NB-11 = format: functional, cell-based, Homo sapiens; settings: Homo sapiens, MHH-NB-11;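 also: growth inhibition of human MHH-NB-11 cells, read out by a cell viability assay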
Description: SANGER: Inhibition of human MHH-NB-11 cell growth in a cell viability assay.

MHH-PREB-1 = format: functional, cell-based, Homo sapiens; settings: Homo sapiens, MHH-PREB-1;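 also: cell viability assay measuring inhibition of proliferation of human MHH-PREB-1 cells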
Description: SANGER: Inhibition of human MHH-PREB-1 cell growth in a cell viability assay.

MOLT-4 = format: functional, cell-based, Homo sapiens; settings: Homo sapiens, MOLT-4;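 also: growth inhibition of MOLT-4 cells, determined with a cell viability readout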
Description: SANGER: Inhibition of human MOLT-4 cell growth in a cell viability assay.

MV4-11 = format: functional, cell-based, Homo sapiens, MV-4-11; settings: Homo sapiens, MV4-11;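 also: cell viability readout measuring growth inhibition of human MV-4-11 cells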
Description: SANGER: Inhibition of human MV-4-11 cell growth in a cell viability assay.

NCI-H1650 = format: functional, cell-based, Homo sapiens; settings: Homo sapiens, NCI-H1650;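 also: growth inhibition of human NCI-H1650 cells measured by a cell viability assay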
Description: SANGER: Inhibition of human NCI-H1650 cell growth in a cell viability assay.

NCI-H23 = format: functional, cell-based, Homo sapiens; settings: Homo sapiens, NCI-H23;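 also: cell viability assay measuring growth inhibition of NCI-H23 cells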
Description: SANGER: Inhibition of human NCI-H23 cell growth in a cell viability assay.

NCI-H720 = format: functional, cell-based, Homo sapiens; settings: Homo sapiens, NCI-H720;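 also: growth inhibition of human NCI-H720 cells determined by a cell viability assay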
Description: SANGER: Inhibition of human NCI-H720 cell growth in a cell viability assay.

NEC8 = format: functional, cell-based, Homo sapiens; settings: Homo sapiens, NEC8;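 also: growth inhibition of human NEC8 cells, read out by a cell viability assay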
Description: SANGER: Inhibition of human NEC8 cell growth in a cell viability assay.

NH-12 = format: functional, cell-based, Homo sapiens; settings: Homo sapiens, NH-12;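 also: growth inhibition of NH-12 cells, read out with a cell viability assay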
Description: SANGER: Inhibition of human NH-12 cell growth in a cell viability assay.

ONS-76 = format: functional, cell-based, Homo sapiens; settings: Homo sapiens, ONS-76;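 also: growth inhibition of human ONS-76 cells, read out with a cell viability assay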
Description: SANGER: Inhibition of human ONS-76 cell growth in a cell viability assay.

PSN1 = format: functional, cell-based, Homo sapiens; settings: Homo sapiens, PSN1;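 also: suppression of growth of human PSN1 cells, read out by a cell viability assay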
Description: SANGER: Inhibition of human PSN1 cell growth in a cell viability assay.

RCC10RGB = format: functional, cell-based, Homo sapiens; settings: Homo sapiens, RCC10RGB;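 also: growth inhibition of human RCC10RGB cells, read out by a cell viability assay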
Description: SANGER: Inhibition of human RCC10RGB cell growth in a cell viability assay.

RPMI-8226 = format: functional, cell-based, Homo sapiens; settings: Homo sapiens, RPMI-8226
Description: SANGER: Inhibition of human RPMI-8226 cell growth in a cell viability assay.

SJSA-1 = format: functional, cell-based, Homo sapiens; settings: Homo sapiens, SJSA-1;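 also: growth inhibition of human SJSA-1 cells, read out through a cell viability measurement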
Description: SANGER: Inhibition of human SJSA-1 cell growth in a cell viability assay.

SK-LMS-1 = format: functional, cell-based, Homo sapiens; settings: Homo sapiens, SK-LMS-1;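 also: growth inhibition of human SK-LMS-1 cells, read out with a cell viability assay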
SK-N-DZ = format: functional, cell-based, Homo sapiens; settings: Homo sapiens, SK-N-DZ; read-out: IC50;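 also: growth inhibition of the cancer cell line, read out through a viability assay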
Description: SANGER: Inhibition of human SK-N-DZ cell growth in a cell viability assay.

SK-PN-DW = format: functional, cell-based, Homo sapiens; settings: Homo sapiens, SK-PN-DW;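 also: growth inhibition measured with a viability assay on these cells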
A253 cell line = format: functional, cell-based, Homo sapiens; settings: Homo sapiens, A253;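 also: growth inhibition of A253 cells, read out with a cell viability assay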
Description: SANGER: Inhibition of human A253 cell growth in a cell viability assay.

AM-38 = format: functional, cell-based, Homo sapiens; settings: Homo sapiens, AM-38;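 also: growth inhibition of AM-38 cells of human origin, read out by a cell viability assay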
Description: SANGER: Inhibition of human AM-38 cell growth in a cell viability assay.

BB49-HNC = format: functional, cell-based, Homo sapiens; settings: Homo sapiens, BB49-HNC;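 also: cell viability assay read-out, reported as inhibition of BB49-HNC cell growth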
Description: SANGER: Inhibition of human BB49-HNC cell growth in a cell viability assay.

TE-10 = format: functional, cell-based, Homo sapiens; settings: Homo sapiens, TE-10;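 also: growth inhibition of TE-10 cells, measured by a cell viability assay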
Description: SANGER: Inhibition of human TE-10 cell growth in a cell viability assay.

U-87 MG = format: functional, cell-based, Homo sapiens, U-87MG ATCC; settings: Homo sapiens, U-87 MG;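 also: growth inhibition of the cells measured with a viability assay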
Description: SANGER: Inhibition of human U-87-MG cell growth in a cell viability assay.

UACC-257 = format: functional, cell-based, Homo sapiens; settings: Homo sapiens, UACC-257
Description: SANGER: Inhibition of human UACC-257 cell growth in a cell viability assay.

CCRF-CEM = format: functional, cell-based, Homo sapiens; settings: Homo sapiens, CCRF-CEM;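 also: inhibition of CCRF-CEM cell growth, measured by a cell viability assay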
Description: SANGER: Inhibition of human CCRF-CEM cell growth in a cell viability assay.

Structure (SMILES): O=S(=O)(O)c1ccc2cc(/N=N/c3cc(S(=O)(=O)O)c4cccnc4c3O)ccc2c1
- IC50 (COLO-829): > 16 µM
- IC50 (CW-2): > 16 µM
- IC50 (D283 Med): > 16 µM
- IC50 (DEL): > 16 µM
- IC50 (EKVX): > 16 µM
- IC50 (GI-ME-N): > 16 µM
- IC50 (GR-ST): > 16 µM
- IC50 (HCC1187): > 16 µM
- IC50 (HD-MY-Z): > 16 µM
- IC50 (HL-60): > 16 µM
- IC50 (HT-144): > 16 µM
- IC50 (J-RT3-T3-5): > 16 µM
- IC50 (K5): > 16 µM
- IC50 (KALS-1): > 16 µM
- IC50 (KG-1): > 16 µM
- IC50 (KM12): > 16 µM
- IC50 (KNS-81-FD): > 16 µM
- IC50 (KP-N-YS): > 16 µM
- IC50 (LB831-BLC): > 16 µM
- IC50 (LB996-RCC): > 16 µM
- IC50 (LS-1034): > 16 µM
- IC50 (Lu-65): > 16 µM
- IC50 (LXF-289 cell line): > 16 µM
- IC50 (MEG-01): > 16 µM
- IC50 (MHH-NB-11): > 16 µM
- IC50 (MHH-PREB-1): > 16 µM
- IC50 (MOLT-4): > 16 µM
- IC50 (MV4-11): > 16 µM
- IC50 (NCI-H1650): > 16 µM
- IC50 (NCI-H23): > 16 µM
- IC50 (NCI-H720): > 16 µM
- IC50 (NEC8): > 16 µM
- IC50 (NH-12): > 16 µM
- IC50 (ONS-76): > 16 µM
- IC50 (PSN1): > 16 µM
- IC50 (RCC10RGB): > 16 µM
- IC50 (RPMI-8226): > 16 µM
- IC50 (SJSA-1): > 16 µM
- IC50 (SK-LMS-1): 9.45 µM
- IC50 (SK-N-DZ): > 16 µM
- IC50 (SK-PN-DW): > 16 µM
- IC50 (A253 cell line): > 16 µM
- IC50 (AM-38): > 16 µM
- IC50 (BB49-HNC): > 16 µM
- IC50 (TE-10): > 16 µM
- IC50 (U-87 MG): > 16 µM
- IC50 (UACC-257): > 16 µM
- IC50 (CCRF-CEM): > 16 µM

Structure (SMILES): C[C@@H](Oc1cc(-c2cnn(C3CCNCC3)c2)cnc1N)c1c(Cl)ccc(F)c1Cl [CRIZOTINIB]
- IC50 (COLO-829): > 2 µM
- IC50 (CW-2): > 2 µM
- IC50 (D283 Med): > 2 µM
- IC50 (DEL): 0.37 µM
- IC50 (EKVX): > 2 µM
- IC50 (GI-ME-N): > 2 µM
- IC50 (GR-ST): > 2 µM
- IC50 (HCC1187): > 2 µM
- IC50 (HD-MY-Z): > 2 µM
- IC50 (HL-60): > 2 µM
- IC50 (HT-144): > 2 µM
- IC50 (J-RT3-T3-5): > 2 µM
- IC50 (K5): > 2 µM
- IC50 (KALS-1): > 2 µM
- IC50 (KG-1): > 2 µM
- IC50 (KM12): 0.707 µM
- IC50 (KNS-81-FD): > 2 µM
- IC50 (KP-N-YS): > 2 µM
- IC50 (LB831-BLC): > 2 µM
- IC50 (LB996-RCC): > 2 µM
- IC50 (LS-1034): > 2 µM
- IC50 (Lu-65): > 2 µM
- IC50 (LXF-289 cell line): > 2 µM
- IC50 (MEG-01): 0.858 µM
- IC50 (MHH-NB-11): > 2 µM
- IC50 (MHH-PREB-1): > 2 µM
- IC50 (MOLT-4): > 2 µM
- IC50 (MV4-11): > 2 µM
- IC50 (NCI-H1650): > 2 µM
- IC50 (NCI-H23): > 2 µM
- IC50 (NCI-H720): > 2 µM
- IC50 (NEC8): > 2 µM
- IC50 (NH-12): > 2 µM
- IC50 (ONS-76): > 2 µM
- IC50 (PSN1): > 2 µM
- IC50 (RCC10RGB): > 2 µM
- IC50 (RPMI-8226): > 2 µM
- IC50 (SJSA-1): > 2 µM
- IC50 (SK-LMS-1): 1.77 µM
- IC50 (SK-N-DZ): > 2 µM
- IC50 (SK-PN-DW): > 2 µM
- IC50 (A253 cell line): > 2 µM
- IC50 (AM-38): > 2 µM
- IC50 (BB49-HNC): > 2 µM
- IC50 (TE-10): > 2 µM
- IC50 (U-87 MG): > 2 µM
- IC50 (UACC-257): > 2 µM
- IC50 (CCRF-CEM): > 2 µM

Structure (SMILES): Cc1cc(N2CCOCC2)cc2[nH]c(-c3c(NC[C@@H](O)c4cccc(Cl)c4)cc[nH]c3=O)nc12
- IC50 (COLO-829): > 5.12 µM
- IC50 (CW-2): > 5.12 µM
- IC50 (D283 Med): > 5.12 µM
- IC50 (DEL): 2.7 µM
- IC50 (EKVX): 2.51 µM
- IC50 (GI-ME-N): 2.06 µM
- IC50 (GR-ST): 3.27 µM
- IC50 (HCC1187): > 5.12 µM
- IC50 (HD-MY-Z): > 5.12 µM
- IC50 (HL-60): 0.286 µM
- IC50 (HT-144): 1.82 µM
- IC50 (J-RT3-T3-5): > 5.12 µM
- IC50 (K5): 1.78 µM
- IC50 (KALS-1): > 5.12 µM
- IC50 (KG-1): > 5.12 µM
- IC50 (KM12): 0.0284 µM
- IC50 (KNS-81-FD): > 5.12 µM
- IC50 (KP-N-YS): > 5.12 µM
- IC50 (LB831-BLC): 1.5 µM
- IC50 (LB996-RCC): 0.816 µM
- IC50 (LS-1034): 0.758 µM
- IC50 (Lu-65): 4.5 µM
- IC50 (LXF-289 cell line): 1.55 µM
- IC50 (MEG-01): 4.21 µM
- IC50 (MHH-NB-11): > 5.12 µM
- IC50 (MHH-PREB-1): > 5.12 µM
- IC50 (MOLT-4): 4.58 µM
- IC50 (MV4-11): 0.206 µM
- IC50 (NCI-H1650): > 5.12 µM
- IC50 (NCI-H23): > 5.12 µM
- IC50 (NCI-H720): > 5.12 µM
- IC50 (NEC8): > 5.12 µM
- IC50 (NH-12): > 5.12 µM
- IC50 (ONS-76): > 5.12 µM
- IC50 (PSN1): 0.395 µM
- IC50 (RCC10RGB): 3.57 µM
- IC50 (RPMI-8226): > 5.12 µM
- IC50 (SJSA-1): 0.456 µM
- IC50 (SK-LMS-1): 4.81 µM
- IC50 (SK-N-DZ): 2.11 µM
- IC50 (SK-PN-DW): 3.43 µM
- IC50 (A253 cell line): > 5.12 µM
- IC50 (AM-38): > 5.12 µM
- IC50 (BB49-HNC): > 5.12 µM
- IC50 (TE-10): 1.2 µM
- IC50 (U-87 MG): > 5.12 µM
- IC50 (UACC-257): > 5.12 µM
- IC50 (CCRF-CEM): > 5.12 µM
